According to a melting point compilation (Tetko et al.; mined from patent text by program, amines drawn as free bases though some values may be those of a salt):

| melting point [°C] | SMILES |
| --- | --- |
| 220 to 222 | O=C(Nc1ccc2cc(CN3CCCCC3)ccc2c1)c1ccc(-c2ccc(Cl)cc2)cc1 |
| 68 to 69 | CCOC(=O)c1ccc(OCc2ccccc2)c(OCc2ccccc2)c1 |
| 32 to 33 | CCCCCCCCCCCCCCc1ccc(S(=O)(=O)Cl)cc1 |
| 98 to 99 | CC(C)(C)OC(=O)NS(=O)(=O)c1ccc(Cl)cc1 |
| 107 to 108 | CCOP(C)(=O)CC(CCc1ccccc1)NS(=O)(=O)c1ccc(C)cc1 (configuration not stated) |
| 268 to 270 | O=C(O)c1ccc(COc2ccc3cc(-c4csc(-c5ccccc5)n4)ccc3c2Br)cc1 |
| 163 to 165 | CCC(CC)Nc1nc(C)nc(N2CCc3cc(Cl)cc(Cl)c32)c1C#N |
| 125 to 126 | COc1ccc2c(=O)c(-c3ccc(OCC(O)CNC4CCCCC4)cc3)coc2c1 (configuration not stated) |
| 196 | CS(=O)(=O)C(=C1CN(C(c2ccccc2)c2ccccc2)C1)c1cccc2ccccc12 |
| 219 to 220 | CCN1c2ncc(Cc3cccc(O)c3)cc2C(=O)N(C)c2ccc(Cl)nc21 |
| 187 to 188 | Cc1c(C(=O)Nc2ccc(OCC(C)(C)C)c(C#N)c2)cnn1C |
| 260 to 262 | Cc1cccc(-c2c(=O)[nH]c3cc(Cl)c(Cl)cc3[n+]2[O-])c1 |
| 137 to 138 | CC(C)Oc1cc(CCC(=O)NS(=O)(=O)C2CCCCC2)n(Cc2ccc(Cl)cc2Cl)n1 |
| 118 to 120 | C1=Nc2ccccc2N2CCCc3cccc1c32 |
| 296 to 297 | COc1cc(C2C3=C(COC3=O)Nc3ccc4ncsc4c32)ccc1O (configuration not stated) |
| 154 to 155 | CCn1ncc2c(O)c3c(nc21)CCc1ccccc1C3=O |
| 208 to 210 | COc1ccc(C(N)CC(=O)O)cc1OC (configuration not stated) |
| 210 | O=C(O)Cc1cc(=O)oc2cc(O)ccc12 |
| 125 to 126 | Cc1nc(N2CCCC(NCC3CC3)C2=O)sc1C(=O)NCc1ccccc1 (configuration not stated) |
| 120 to 122 | CCCCC(CC)COc1c(-c2ccc(S(C)(=O)=O)cc2)cnn(-c2ccc(F)cc2)c1=O (configuration not stated) |
| 136 to 137 | Cc1ccccc1CCC(=O)N(C)C(C)C(O)c1ccccc1 (configuration not stated) |
| 188 to 189 | COc1cc(OC)c2c(=O)nc(-c3cc(C)c(O)c(C)c3)n(C)c2c1 |
| > 250 | Cc1ccc(S(=O)(=O)n2c(=O)[nH]c3cc(Cl)ccc3c2=O)cc1C |
| 189 to 190 | Cc1cc(C[C@@H](NC(=O)c2ccc(F)c3ccccc23)[C@@H](O)c2ccc(F)cc2)cc(OC(F)(F)C(F)F)c1 (racemic) |

| melting point [°C] | SMILES |
| --- | --- |
| 130 to 131 | Cc1c(C)c2c(c(C)c1N)C(c1cccnc1)C(C)(C)O2 (configuration not stated) |
| 148 to 149 | Fc1ccc2c(CN3CCN(CCc4ccccc4)CC3)n[nH]c2c1 |
| 93 to 94 | CCOC(=O)C(=O)CC(=O)CC(=O)c1ccc(Cl)cc1 |
| 92 to 94 | CCCN(CC(O)COc1ccc2c(=O)cc(-c3ccccc3)oc2c1)C(=O)OCc1ccccc1 (configuration not stated) |
| 242 to 247 | COc1ccc(-c2nc(C3=NNC(=O)CC3)sc2-c2ccc(OC)cc2)cc1 |
| 82 to 87 | CCOC(=O)CNc1nc(Cl)nc(Cl)n1 |
| 165 to 166 | COc1ccc(Cn2nc(-c3ccc(SC)cc3)c(-c3ccc(F)cc3)cc2=O)cc1 |
| 214 to 215 | O=C1CC=C(c2ccccc2F)c2cc(Cl)ccc2N1 |
| 88 to 90 | CCCc1c(OCCOc2ccc(S(=O)(=O)c3nnn[nH]3)cc2)ccc(C(C)=O)c1O |
| 219 to 220 | CC(=O)Nc1ccc(Nc2nccc(-c3sc(C)nc3C)n2)cc1 |
| 235 to 237 | ON=C1c2ccccc2-c2c1c(N1CCN(c3ccccn3)CC1)nc1ccc(Br)cc21 |
| 223 to 224 | CC(C)(Cc1ccccc1)C(NC(=O)c1ccc(Cl)cc1)Nc1c(Nc2cccnc2)c(=O)c1=O (configuration not stated) |
| 142 to 143 | CCc1cc2c(Cl)cc(F)c(-n3c(=O)cc(C(F)(F)F)n(C)c3=O)c2o1 |
| 252 | O=Cc1ccc(-c2ccc3ncnc(Nc4ccc(OCc5cccc(F)c5)c(Cl)c4)c3c2)s1 |
| 200 to 202 | N#Cc1ccccc1CSc1nc2cnccc2[nH]1 |
| 154 to 155 | Cc1oc(-c2ccncc2)nc1COc1ccc(Cn2cc(CCC(=O)O)c(-c3ccccc3)n2)cc1 |
| 147 to 148 | O=C(c1ccccn1)c1nsc2nccn12 |
| 107 to 108 | COc1ccc(C2CCc3ccccc3C2=O)cc1 (configuration not stated) |
| 82 | OC(CSC(=S)Nc1ccccn1)c1ccccc1 (configuration not stated) |
| 138 | CC1(C)c2cc(C#N)ccc2OC1OC(=O)CCl (configuration not stated) |
| 153 to 155 | CNC(=S)NCCCCc1nc[nH]c1Br |
| 174 to 175 | CCOc1cc(C)ccc1C1CCN(CCCCNC(=O)c2ccc3c(c2)cc(-c2ccc(Cl)cc2)n3C)CC1 |
| 226 to 230 | O=C(O)CCCCN1CCN2c3ccccc3Sc3ccccc3C2C1 (configuration not stated) |
| 78 | C=C(Cc1ccccc1)C(=O)NN1CCNCC1 |

| melting point [°C] | SMILES |
| --- | --- |
| 105 to 110 | CCCCc1oc2ccccc2c1C(=O)N(Cc1ccccc1)Cc1ccc2c(Br)c(OCC#N)ccc2c1 |
| 56.1 to 57.9 | C=CC(=O)OCCCCCCCCOc1ccc(-c2ccc(OCCCCCCCCOC(=O)C=C)c(F)c2)cc1F |
| 69 to 73 | CCCCc1ccc(NC=C(C#N)C(=O)OCC)nc1 |
| 170 | Nc1c(-c2ccc(Cl)cc2)nnn1-c1ccc(C(F)(F)F)cc1F |
| > 250 | COc1cccc(NC(=O)N[C@H]2C[C@@](N)(C(=O)O)[C@@H]3[C@@H](C(=O)O)[C@@H]32)c1 (relative stereo) |
| 239 to 241 | Clc1ccc2c(c1)C(c1ccccc1)Nc1nccn1-2 (configuration not stated) |
| 85 to 90 | COC(=O)C1=C(C)NC(C)=C(C(=O)OC)C1c1cccc(N(C)C(=NC#N)NCCCN2CCC(c3ccccc3)CC2)c1 |
| 61 to 63 | CCCCCCCCCCCCOc1ccc(C(=O)c2ccc(Cl)cc2)c(O)c1 |
| 194 to 196 | Nc1nc(-c2ccc(Cl)cc2F)nc(C(=O)O)c1Cl |
| 122 to 125 | Cn1c(=O)sc2ccc(C(c3ccc(C#N)cc3)n3cncn3)cc21 (configuration not stated) |
| 103 to 106 | CN(C)C=C1C(=O)N(c2cccc(C(F)(F)F)c2)c2ccccc21 |
| 136 to 145 | O=C(Nc1ccc(C(=O)N2C[C@H]3C[C@H](F)CN3c3ccccc32)cc1)c1ccccc1-c1ccccc1 |
| 239 to 241 | O=C(O)/C=C(\c1ccccc1)c1ccncc1 |
| 203 to 204 | O=C(Nc1ccc(-n2nc(C(F)(F)F)cc2C(F)(F)F)cc1)c1cccc([N+](=O)[O-])c1 |
| 295 to 298 | O=C1CC(Nc2ccc([N+](=O)[O-])cc2)=NN1c1c(Cl)cc(Cl)cc1Cl |
| 113 to 118 | CSC1=NC=C(I)C(c2nnn(C)n2)(C(F)(F)F)N1 (configuration not stated) |
| 126 to 128 | COC(=O)C(=Cc1cc(OC)cc(OC)c1)c1ccc(Oc2ccc(C=C3SC(=O)NC3=O)cc2)cc1 |
| 150 to 152 | CC1(C)CC(OC(=O)NNC(=O)OC2CC(C)(C)N(OC3CCCCC3)C(C)(C)C2)CC(C)(C)N1OC1CCCCC1 |
| > 320 | CC(=O)Nc1ccc2nc3[nH]c(=O)[nH]c3cc2c1 |
| 99 to 101 | O=C(Nc1n[nH]c(=S)s1)NC(Cc1ccccc1)C(=O)NCc1cccnc1 (configuration not stated) |
| 105 to 108 | CC(C)c1cc(C(C)C)c(OCC(=O)O)c(C(C)C)c1 |
| 155 to 156 | COc1cccc(C(=O)N2CCc3cc(S(=O)(=O)N4CCN(c5cccc(Cl)c5)CC4)ccc32)c1 |
| 193 to 194 | Cc1cc(C2CCN(S(=O)(=O)C3(C(=O)NO)CCOCC3)CC2)ccc1-c1cccc(OCCO)n1 |
| 198 to 201 | CC(=O)OC1(C(=O)CO)CCC2C3CC(C)C4=CC(=O)C=CC4(C)C3C(O)CC21C (configuration not stated) |

| melting point [°C] | SMILES |
| --- | --- |
| 95 to 96 | C#CCON=C(CCC)C1=C(O)CC(c2ccc(C(=O)SC)cc2)CC1=O (configuration not stated) |
| 185 to 186 | O=C1Nc2ccccc2C1C(=O)c1ccoc1 (configuration not stated) |
| 123 to 124 | CC12CCCc3cc(N(CC4CC4)c4ncc(C(=O)O)cn4)cc(c31)CCC2 |
| 152 | Cc1ccc2c(Sc3cc(Cl)cc(Cl)c3)c(CCC(N)=O)[nH]c2c1 |
| 39 to 44 | CCCCCCCCCCCCCCCC(=O)N1C[C@H](O)C[C@H]1C(=O)OCCCCCCCCCCCC |
| 114 to 116 | O=C(c1cc([N+](=O)[O-])ccc1Cl)c1sccc1Cl |
| 167 to 170 | NS(=O)(=O)c1ccccc1-n1cccn1 |
| 191 to 194 | Cc1nn(C)c(=O)c(-n2nc(-c3ccc(C(F)(F)F)cc3)cc2C)c1O |
| 103 to 104 | Cc1ccc2c(c1)CC(=O)c1cc(F)ccc1S2 |
| 165 to 166 | CC(C)(C)CN1C(=O)C(=O)N(c2ccc(F)cc2)C1=S |
| 235 to 236 | CCc1cnc2c(NC(=O)c3c(Cl)cccc3Cl)cccc2c1CCC(N)=O |
| 89 to 91 | CCOC(=O)/C=C(C)/C=C/C=C(C)/C=C/c1c(C)oc(C)c1C |
| 143 | CN(C)CCCNC1c2ccccc2C(=O)N1c1ccc2ccc(Cl)nc2n1 (configuration not stated) |
| 144 to 145 | COc1ccc(C(=O)OCc2ccccc2)cc1NC(=S)Nc1cc(Cl)cc(Cl)c1 |
| 180 | O=[N+]([O-])c1ccc2c(c1-c1n[nH]cc1Cl)OC(F)(F)O2 |
| 167 to 169 | COc1cc2c(cc1OC)C(C(=O)O)SCC2 (configuration not stated) |
| 262 to 264 | CN1Cc2ccc(COc3cccc4c3CN(C3CCC(=O)NC3=O)C4=O)cc2C1 (configuration not stated) |
| 116 to 117 | CC(=O)Oc1ccccc1-c1ccc(C(C)=O)cc1 |
| 117 to 118 | O=C(O)CCc1cc(Br)c2c(c1)CCO2 |
| 160 to 162 | O=S1(=O)N=CN(C2CC2)c2ccc(C(F)(F)F)cc21 |
| 109 to 110 | CC(C)CC1(C(CCSc2cccs2)C(=O)NO)CCN(CCc2ccccc2)C1=O (configuration not stated) |

| SMILES | melting point [°C] |
| --- | --- |
| C=CCN(CC=C)Cc1noc(-c2ncn3c2[C@@H]2CCN2C(=O)c2c(Cl)cccc2-3)n1 | 190 to 192 |
| N#CC1CN1C(=O)c1ccc2c(c1)OCO2 (configuration not stated) | 95 to 97 |
| CCCCCc1cc(O)c(C2=C(CO)CCC(C)C2)c(O)c1 (configuration not stated) | 109 to 111 |
| O=[N+]([O-])c1ccc(NCCC23CCCN2CCC3)c2ccccc12 | 90 to 91 |
